Target: T1, human calcium-sensing receptor (CaSR) (Homo sapiens, UniProt P41180)
T1 construct: expressed in transfected cells
T1 sequence (P41180 20-1078): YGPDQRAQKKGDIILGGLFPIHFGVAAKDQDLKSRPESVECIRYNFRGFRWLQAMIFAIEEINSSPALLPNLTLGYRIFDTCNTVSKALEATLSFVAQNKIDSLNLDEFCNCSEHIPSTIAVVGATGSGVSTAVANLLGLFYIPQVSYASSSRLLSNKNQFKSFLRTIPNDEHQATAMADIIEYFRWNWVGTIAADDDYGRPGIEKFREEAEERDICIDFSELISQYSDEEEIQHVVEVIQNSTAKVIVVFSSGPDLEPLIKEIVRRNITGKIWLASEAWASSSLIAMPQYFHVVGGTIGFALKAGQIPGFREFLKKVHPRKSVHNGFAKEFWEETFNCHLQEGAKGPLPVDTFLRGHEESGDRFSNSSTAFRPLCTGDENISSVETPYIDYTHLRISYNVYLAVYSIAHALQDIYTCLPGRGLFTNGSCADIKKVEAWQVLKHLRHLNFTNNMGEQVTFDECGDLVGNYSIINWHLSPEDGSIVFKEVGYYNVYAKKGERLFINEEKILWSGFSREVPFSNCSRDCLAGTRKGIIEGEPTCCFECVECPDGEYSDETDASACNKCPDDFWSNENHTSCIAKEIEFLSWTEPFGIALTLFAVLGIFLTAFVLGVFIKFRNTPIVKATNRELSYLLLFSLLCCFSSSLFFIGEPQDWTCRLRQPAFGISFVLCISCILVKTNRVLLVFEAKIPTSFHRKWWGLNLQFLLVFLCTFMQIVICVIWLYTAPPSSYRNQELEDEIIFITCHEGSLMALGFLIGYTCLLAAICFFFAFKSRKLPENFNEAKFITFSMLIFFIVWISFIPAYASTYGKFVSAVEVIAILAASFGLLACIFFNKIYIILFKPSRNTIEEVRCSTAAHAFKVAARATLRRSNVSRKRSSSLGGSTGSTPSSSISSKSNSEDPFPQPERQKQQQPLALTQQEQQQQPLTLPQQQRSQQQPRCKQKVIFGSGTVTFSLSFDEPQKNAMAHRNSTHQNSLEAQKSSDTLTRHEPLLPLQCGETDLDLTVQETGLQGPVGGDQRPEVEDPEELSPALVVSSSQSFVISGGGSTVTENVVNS
Assay: Inhibitory activity on calcium-sensing receptor (CaSR), intracellular calcium increase as indicator (FLIPR, CHO/hCaSR)
Assay type: cell-based
Settings: CHO cells stably expressing human CaSR; inhibition of intracellular Ca increase induced by extracellular CaCl2
Experimental: Evaluation of inhibitory activity on calcium-sensing receptor (CaSR) using intracellular calcium increase as an indicator
The preparation which is prepared by adding CHO/hCaSR to F12 medium (manufactured by Invitrogen) containing 10% fetal bovine serum to have 2×10^5 cells/mL was applied to a 384-well in an amount of 50 μL/well, and then incubated overnight in a CO2 incubator. The culture supernatant was completely removed, the assay buffer (20 mM HEPES, HBSS (Ca and Mg free) containing 2.5 mM probenecid, pH 7.4) containing Calcium 3 (manufactured by Molecular Devices), i.e., a fluorescent intracellular calcium indicator, was added thereto in an amount of 25 μL/well, and the mixture was maintained for 1 hour in a CO2 incubator. Meanwhile, Calcium 3 was prepared according to the protocol enclosed in FLIPR Calcium 3 Assay Kit (manufactured by Molecular Devices). After maintaining it for 1 hour, a solution in which the test compound is prepared to have 2.1 to 20,000 nM (final concentration of 1.05 to 10,000 nM) by an assay buffer was added thereto in an amount of 25 μL/well, and maintained for 15 minutes in a CO2 incubator. Then, the CaCl2 solution prepared to have […] by using the assay buffer was added in an amount of 25 μL/well, and the resulting intracellular Ca increase (i.e., fluorescence intensity) was measured over time using a fluorescence imaging plate reader (FLIPR, manufactured by Molecular Devices). From the data obtained, the difference between the fluorescence intensity before the addition of CaCl2 solution and the maximum fluorescence intensity after the addition of CaCl2 solution was calculated, and the 50% inhibition concentration (IC50) of the test compound was obtained.

IC50 [µM] | SMILES
≤ 3.23 | Cc1ccc(C[C@@H]2CCCN2C[C@@H](O)CO[C@H](C)c2cc(F)c(F)cc2CCC(=O)O)cc1Cl [Example 176]
≤ 3.14 | CC[C@@H](OC[C@H](O)CN1CCC[C@H]1Cc1ccc(C)c(Cl)c1)c1cc(F)cc(F)c1CCC(=O)O [Example 140]
≤ 3.09 | CC[C@@H](OC[C@H](O)CN1CCC[C@H]1Cc1ccc(C)c(F)c1)c1cc(F)c(C)cc1CCCCC(=O)O [Example 70]
≤ 3.25 | COc1cc(F)cc([C@@H](C)OC[C@H](O)CN2CCC[C@H]2Cc2ccc(C)c(F)c2)c1CCC(=O)O [Example 33]
≤ 3.1 | C[C@@H](OC[C@H](O)CN1CCC[C@H]1Cc1ccc(Cl)c(Cl)c1)c1cc(F)c(F)cc1CCC(=O)O [Example 177]
≤ 3.14 | CC[C@@H](OC[C@H](O)CN1CCC[C@H]1Cc1ccc(C)c(Cl)c1)c1cc(F)c(F)cc1CCC(=O)O [Example 144]
≤ 3.11 | CC[C@@H](OC[C@H](O)CN1CCC[C@H]1Cc1ccc(Cl)c(F)c1)c1cc(F)c(F)cc1CCC(=O)O [Example 145]
≤ 3.16 | CCc1cc(C[C@@H]2CCCN2C[C@@H](O)CO[C@H](C)c2cc(F)c(C)cc2CCC(=O)O)ccc1Cl [Example 146]
≤ 3.47 | Cc1ccc(C[C@@H]2CCCN2C[C@@H](O)COC(C)c2c(F)cccc2CCC(=O)O)cc1F (stereo partly shown) [Example 31]
≤ 3.29 | Cc1ccc(C[C@@H]2CCCN2C[C@@H](O)CO[C@H](C)c2cccc(C)c2CCCCC(=O)O)cc1F [Example 57]
≤ 3.34 | Cc1ccc(C[C@@H]2CCCN2C[C@@H](O)CO[C@H](C)c2cc(F)cc(F)c2CCC(=O)O)cc1F [Example 27]
≤ 3.48 | Cc1ccc(C[C@@H]2CCCN2C[C@@H](O)CO[C@H](C)c2ccccc2CCC(=O)O)cc1Cl [Example 84]
≤ 3.5 | Cc1ccc(C[C@@H]2CCN2C[C@@H](O)CO[C@H](C)c2ccccc2CCCCC(=O)O)cc1F [Example 15, 5-{2-[(1R)-1-({(2R)-3-[(2R)-2-(3-Fluoro-4-methylbenzyl)azetidin-1-yl]-2-hydroxypropyl}oxy)ethyl]phenyl}pentanoic acid]
≤ 3.25 | CC[C@@H](OC[C@H](O)CN1CCC[C@H]1Cc1ccc(C)c(F)c1)c1ccc(Cl)cc1CCC(=O)O [Example 95]
≤ 3.25 | CC[C@@H](OC[C@H](O)CN1CCC[C@H]1Cc1ccc(C)c(Cl)c1)c1cc(F)ccc1CCC(=O)O [Example 134]
≤ 3.36 | Cc1ccc(C[C@@H]2CCCN2C[C@@H](O)CO[C@H](C)c2ccc(F)c(C)c2CCC(=O)O)cc1F [Example 20]
≤ 3.38 | COc1cccc([C@@H](C)OC[C@H](O)CN2CCC[C@H]2Cc2ccc(C)c(F)c2)c1CCC(=O)O [Example 18]
≤ 3.02 | CC[C@@H](OC[C@H](O)CN1CCC[C@H]1Cc1ccc(Cl)c(Cl)c1)c1cc(F)cc(F)c1CCC(=O)O [Example 110]
≤ 3.18 | Cc1ccc(C[C@@H]2CCCN2C[C@@H](O)CO[C@H](C)c2cc(F)c(C)cc2CCCCC(=O)O)cc1F [Example 23]
≤ 3.28 | CCOc1cccc([C@@H](C)OC[C@H](O)CN2CCC[C@H]2Cc2ccc(C)c(F)c2)c1CCC(=O)O [Example 71]
≤ 3.15 | CCc1cc(C[C@@H]2CCCN2C[C@@H](O)CO[C@H](C)c2cccc(Cl)c2CCC(=O)O)ccc1Cl [Example 152]
≤ 3.5 | CC[C@@H](OC[C@H](O)CN1CCC[C@H]1Cc1ccc(C)c(F)c1)c1ccccc1CCC(=O)O [Example 19]
≤ 3.12 | CC[C@@H](OC[C@H](O)CN1CCC[C@H]1Cc1ccc(Cl)c(F)c1)c1ccc(Cl)cc1CCC(=O)O [Example 137]
≤ 3.03 | CC[C@@H](OC[C@H](O)CN1CCC[C@H]1Cc1ccc(Cl)c(Cl)c1)c1cccc(Cl)c1CCC(=O)O [Example 113]
≤ 3.16 | CCC[C@@H](OC[C@H](O)CN1CCC[C@H]1Cc1ccc(C)c(F)c1)c1ccc(Cl)cc1CCC(=O)O [Example 124]

IC50 [µM] | SMILES
≤ 3.38 | Cc1ccc([C@@H](C)OC[C@H](O)CN2CCC[C@H]2Cc2ccc(C)c(Cl)c2)c(CCC(=O)O)c1 [Example 126]
≤ 3.27 | Cc1ccc(C[C@@H]2CCCN2C[C@@H](O)CO[C@H](C)c2cc(F)ccc2CCCCC(=O)O)cc1F [Example 55]
≤ 3.29 | CCC[C@@H](OC[C@H](O)CN1CCC[C@H]1Cc1ccc(C)c(F)c1)c1cccc(C)c1CCC(=O)O [Example 62]
≤ 3.15 | CC[C@@H](OC[C@H](O)CN1CCC[C@H]1Cc1ccc(C)c(Cl)c1)c1cccc(Cl)c1CCC(=O)O [Example 142]
≤ 3.16 | CCc1cc(C[C@@H]2CCCN2C[C@@H](O)CO[C@H](CC)c2cc(F)ccc2CCC(=O)O)ccc1Cl [Example 105]
≤ 3.14 | CCc1cc(C[C@@H]2CCCN2C[C@@H](O)CO[C@H](C)c2cc(F)c(F)cc2CCC(=O)O)ccc1Cl [Example 147]
≤ 3.34 | Cc1ccc(C[C@@H]2CCCN2C[C@@H](O)COC(C)c2c(CCC(=O)O)ccc(F)c2F)cc1F (stereo partly shown) [Example 34]
≤ 3.35 | Cc1ccc(C[C@@H]2CCCN2C[C@@H](O)CO[C@H](C)c2cccc(Cl)c2CCC(=O)O)cc1F [Example 80]
≤ 3.14 | CCc1cc(C[C@@H]2CCCN2C[C@@H](O)CO[C@H](C)c2cc(F)cc(F)c2CCC(=O)O)ccc1Cl [Example 107]
≤ 3.05 | CC[C@@H](OC[C@H](O)CN1CCC[C@H]1Cc1ccc(Cl)c(Cl)c1)c1cccc(OC)c1CCC(=O)O [Example 115]
≤ 3.12 | CC[C@@H](OC[C@H](O)CN1CCC[C@H]1Cc1ccc(Cl)c(Cl)c1)c1cccc(F)c1CCC(=O)O [Example 108]
≤ 3.24 | Cc1ccc([C@@H](C)OC[C@H](O)CN2CCC[C@H]2Cc2ccc(Cl)c(Cl)c2)c(CCC(=O)O)c1 [Example 97]
≤ 3.38 | CCc1cc(C[C@@H]2CCCN2C[C@@H](O)CO[C@H](C)c2ccccc2CCC(=O)O)ccc1Cl [Example 89]
≤ 3.28 | CC[C@@H](OC[C@H](O)CN1CCC[C@H]1Cc1ccc(C)c(F)c1)c1cccc(OC)c1CCC(=O)O [Example 46]
≤ 3.02 | Cc1ccc(C[C@@H]2CCCN2C[C@@H](O)CO[C@H](C)c2cccc(OC(C)C)c2CCCCC(=O)O)cc1F [Example 74]
≤ 3.17 | CCc1cc(C[C@@H]2CCCN2C[C@@H](O)CO[C@H](C)c2cccc(OC)c2CCC(=O)O)ccc1Cl [Example 165]
≤ 3.25 | CCc1cc(C[C@@H]2CCCN2C[C@@H](O)CO[C@H](C)c2cc(F)ccc2CCC(=O)O)ccc1Cl [Example 99]
≤ 3.23 | Cc1ccc(C[C@@H]2CCCN2C[C@@H](O)CO[C@H](C)c2cc(F)c(Cl)cc2CCC(=O)O)cc1F [Example 156]
≤ 3.16 | CCC[C@@H](OC[C@H](O)CN1CCC[C@H]1Cc1ccc(C)c(F)c1)c1cc(Cl)ccc1CCC(=O)O [Example 123]
≤ 3.32 | C[C@@H](OC[C@H](O)CN1CCC[C@H]1Cc1ccc(Cl)c(F)c1)c1cc(F)ccc1CCC(=O)O [Example 130]
≤ 3.25 | CC[C@@H](OC[C@H](O)CN1CCC[C@H]1Cc1ccc(C)c(F)c1)c1cc(Cl)ccc1CCC(=O)O [Example 94]
≤ 3.27 | Cc1ccc(C[C@@H]2CCCN2C[C@@H](O)CO[C@H](C)c2ccc(F)cc2CCCCC(=O)O)cc1F [Example 54]
≤ 3.27 | CCC[C@@H](OC[C@H](O)CN1CCC[C@H]1Cc1ccc(C)c(F)c1)c1cc(F)ccc1CCC(=O)O [Example 61]
≤ 3.19 | CCc1cc(C[C@@H]2CCCN2C[C@@H](O)CO[C@H](CC)c2cccc(C)c2CCC(=O)O)ccc1Cl [Example 122]
